Data set [1] relates to CCRF S-180. Briefly: Antiproliferative activity against mouse S180 cells assessed as cell viability after 48 hrs by MTT assay. The following applies: CCRF S-180, 48 h. Type of data set: functional, cell-based.
For a further data set, the system named is K562. In words: Antiproliferative activity against human K562 cells assessed as cell viability after 48 hrs by MTT assay. Type of data set: functional, cell-based. The conditions noted are these: K562, 48 h. For orientation: Tetrazolium dyes change colour on reduction, which living cells bring about.
The nature of data set [2]: Antioxidant activity assessed as NO free radical scavenging activity produced from N-methyl-D-glucamine dithiocarbamate by ESR assay. Format: physicochemical.
The subject of the next data set is HeLa. Briefly: Antiproliferative activity against human HeLa cells assessed as cell viability after 48 hrs by MTT assay. Type of data set: functional, cell-based.
Data set [3] is described as follows: Antioxidant activity assessed as O2 free radical scavenging activity produced from dimethylpyridine-N-oxide by ESR assay. Type of data set: physicochemical.
Data set [4] concerns Calf thymus DNA. Briefly: Binding affinity to calf thymus DNA at 40 uM by UV-spectrophotometric analysis. Format: nucleic-acid assay. The following applies: Bos taurus.
Data set [5] has as its system Mus musculus. Briefly: Antiinflammatory activity against xylene-induced male ICR mouse ear edema model assessed as plasma TNFalpha at 1 umol/kg, ip relative to NS. Type of data set: functional, organism-based.
Another data set deals with HT-29. Briefly: Antiproliferative activity against human HT-29 cells assessed as cell viability after 48 hrs by MTT assay. Type of data set: functional, cell-based. The following applies: HT-29, 48 h.
The nature of data set [6]: Antiproliferative activity against human SH-SY5Y cells assessed as cell viability after 48 hrs by MTT assay. Type of data set: functional, cell-based.
The test system of data set [7] is CCRF S-180. Briefly: Antitumor activity against mouse S180 cells allografted in male ICR mouse assessed as tumor growth inhibition treated orally ervery day for 7 days. Format: functional.
In data set [8] the test system is Mus musculus. In words: Antiinflammatory activity in male ICR mouse assessed as xylene-induced ear edema at 1 umol/kg, ip relative to NS. Format: functional, organism-based.
Data set [9] can be described thus: Antiproliferative activity against human HL60 cells assessed as cell viability after 48 hrs by MTT assay. Type of data set: functional, cell-based. The conditions noted are these: HL-60, 48 h.
The nature of data set [10]: Antioxidant activity assessed as OH free radical scavenging activity produced from dimethylpyridine-N-oxide by ESR assay. Type of data set: physicochemical.
Data set [11] concerns Mus musculus. In words: Antiinflammatory activity against xylene-induced male ICR mouse ear edema model assessed as plasma IL-8 at 1 umol/kg, ip relative to NS. Format: functional, organism-based.
Data set [12] has as its system CCRF S-180. In words: Antitumor activity against mouse S180 cells allografted in male ICR mouse assessed as tumor growth inhibition at 0.1 umol/kg, po treated ervery day for 7 days relative to NS control. Type of data set: functional, organism-based.
Another data set deals with A549. Briefly: Antiproliferative activity against human A549 cells assessed as cell viability after 48 hrs by MTT assay. Format: functional, cell-based. The following applies: A549, 48 h.
In data set [13] the test system is Calf thymus DNA. In words: Binding affinity to calf thymus DNA at 40 uM by fluoresce spectrum analysis. Type of data set: nucleic-acid assay. The conditions noted are these: Bos taurus.
The next data set relates to HepG2. Briefly: Antiproliferative activity against human HepG2 cells assessed as cell viability after 48 hrs by MTT assay. The conditions noted are these: HepG2, 48 h. Type of data set: functional, cell-based.

The source made the active and inactive calls. No cut-off for these calls is given here.

With `COc1cccc2c1C(=O)c1c(O)c3c(c(O)c1C2=O)C[C@@](O)(C(=O)CO)C[C@@H]3O[C@H]1C[C@H](N)[C@H](O)[C@H](C)O1` [DOXORUBICIN], the IC50 (usually the midpoint of a concentration-inhibition curve) with CCRF S-180 [1] is 9.25 µM.
In the case of `COC(=O)c1cc(-c2nc(C(=O)OCc3ccccc3)cc3c2[nH]c2ccccc23)ccc1O`, the half-maximal inhibitory concentration (IC50) was found to be 960 nM with K562; 960 nM in the data set with HeLa; 960 nM in the data set with HT-29; 960 nM in data set [6]; 960 nM in data set [9]; 0.96 µM in the data set on CCRF S-180 [1]. Also, the IC50 in the data set on A549 and in the data set with HepG2 was 960 nM throughout. Also, the concentration for a half-maximal effect (EC50) – broadly, the concentration giving half of the maximal effect – in data set [2] came to 73 µM; in [3], 285 µM; in [10], 170 nM. The outcome in the data set with Calf thymus DNA [4] and with Calf thymus DNA [13] was Active. Further, the inhibition entry in the data set on Mus musculus [5], in the data set on Mus musculus [8] and in the data set with Mus musculus [11] was “Active” each time. In addition, the inhibition result with CCRF S-180 [7] and in the data set with CCRF S-180 [12] was “Dose-dependent effect” throughout.

These data come from ChEMBL document CHEMBL3407399, “BPIC: A novel anti-tumor lead capable of inhibiting inflammation and scavenging free radicals” (Bioorg Med Chem Lett, 2015).
